Test results from the kinase profiling compilation of Christmann-Franck et al. (2016).

Legend:
Assay in all cases: radiometric filter-binding kinase assay
[1] = test system: AKT1 (human), P31749 [S473D]
BRSK2 (human) = BRSK2 (human) (UniProt Q8IWQ3)
CLK2 (human) = CLK2 (human) (UniProt P49760)
CSNK2A1 (human) = CSNK2A1 (human) (UniProt P68400)
DAPK1 (human) = DAPK1 (human) (UniProt P53355)
DYRK1A (human) = DYRK1A (human) (UniProt Q13627)
DYRK3 (human) = DYRK3 (human) (UniProt O43781)
EPHB3 (human) = EPHB3 (human) (UniProt P54753)
IKBKB (human) = IKBKB (human) (UniProt O14920)
IKBKE (human) = IKBKE (human) (UniProt Q14164)
IRAK4 (human) = IRAK4 (human) (UniProt Q9NWZ3)
MAP2K6 (human) = MAP2K6 (human) (UniProt P52564)
MAP3K11 (human) = MAP3K11 (human) (UniProt Q16584)
MAP3K7 TAB1 (human) = MAP3K7 TAB1 (human) (UniProt Q15750+O43318)
MAPK11 (human) = MAPK11 (human) (UniProt Q15759)
MAPK12 (human) = MAPK12 (human) (UniProt P53778)
MAPK14 (human) = MAPK14 (human) (UniProt Q16539)
MAPK3 (human) = MAPK3 (human) (UniProt P27361)
MAPK8 (human) = MAPK8 (human) (UniProt P45983)
MAPKAPK3 (human) = MAPKAPK3 (human) (UniProt Q16644)
MAPKAPK5 (human) = MAPKAPK5 (human) (UniProt Q8IW41)
MKNK2 (human) = MKNK2 (human) (UniProt Q9HBH9)
NTRK1 (human) = NTRK1 (human) (UniProt P04629)
PAK4 (human) = PAK4 (human) (UniProt O96013)
PIM1 (human) = PIM1 (human) (UniProt P11309)
PIM2 (human) = PIM2 (human) (UniProt Q9P1W9)
PIM3 (human) = PIM3 (human) (UniProt Q86V86)
PLK1 (human) = PLK1 (human) (UniProt P53350)
ROCK2 (rat) = details: accession and sequence are those of the human protein
RPS6KA1 KD1 KD2 (human) = RPS6KA1 KD1 KD2 (human) (UniProt Q15418)
RPS6KA3 KD1 KD2 (human) = RPS6KA3 KD1 KD2 (human) (UniProt P51812)
[2] = test system: RPS6KB1 (human), P23443 [T412E]
[3] = test system: SGK1 (human), O00141 [S422D]
STK3 (human) = STK3 (human) (UniProt Q13188)
TBK1 (human) = TBK1 (human) (UniProt Q9UHD2)

Chain of MAPK14 (human) (Q16539 whole entry, looked up): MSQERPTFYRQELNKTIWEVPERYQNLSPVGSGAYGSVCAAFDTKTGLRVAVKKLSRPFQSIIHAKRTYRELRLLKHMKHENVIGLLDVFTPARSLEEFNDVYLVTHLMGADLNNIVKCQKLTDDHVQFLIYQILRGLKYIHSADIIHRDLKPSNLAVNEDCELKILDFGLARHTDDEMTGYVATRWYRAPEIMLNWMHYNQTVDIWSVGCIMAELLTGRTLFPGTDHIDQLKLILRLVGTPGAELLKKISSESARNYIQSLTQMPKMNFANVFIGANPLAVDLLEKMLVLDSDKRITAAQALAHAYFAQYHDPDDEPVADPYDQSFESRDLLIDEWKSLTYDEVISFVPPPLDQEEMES
Chain of MAPK11 (human) (Q15759 whole entry, looked up): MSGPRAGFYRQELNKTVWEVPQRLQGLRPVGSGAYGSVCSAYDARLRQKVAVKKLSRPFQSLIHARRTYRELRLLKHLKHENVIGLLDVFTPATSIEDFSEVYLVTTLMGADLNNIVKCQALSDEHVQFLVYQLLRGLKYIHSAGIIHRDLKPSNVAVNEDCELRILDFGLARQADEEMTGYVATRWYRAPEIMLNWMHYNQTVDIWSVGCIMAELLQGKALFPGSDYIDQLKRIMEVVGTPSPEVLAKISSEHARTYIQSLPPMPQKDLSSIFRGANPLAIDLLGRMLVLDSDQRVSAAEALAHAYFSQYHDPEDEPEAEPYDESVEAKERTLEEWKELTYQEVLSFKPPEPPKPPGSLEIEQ
Chain of IKBKB (human) (O14920 whole entry, looked up): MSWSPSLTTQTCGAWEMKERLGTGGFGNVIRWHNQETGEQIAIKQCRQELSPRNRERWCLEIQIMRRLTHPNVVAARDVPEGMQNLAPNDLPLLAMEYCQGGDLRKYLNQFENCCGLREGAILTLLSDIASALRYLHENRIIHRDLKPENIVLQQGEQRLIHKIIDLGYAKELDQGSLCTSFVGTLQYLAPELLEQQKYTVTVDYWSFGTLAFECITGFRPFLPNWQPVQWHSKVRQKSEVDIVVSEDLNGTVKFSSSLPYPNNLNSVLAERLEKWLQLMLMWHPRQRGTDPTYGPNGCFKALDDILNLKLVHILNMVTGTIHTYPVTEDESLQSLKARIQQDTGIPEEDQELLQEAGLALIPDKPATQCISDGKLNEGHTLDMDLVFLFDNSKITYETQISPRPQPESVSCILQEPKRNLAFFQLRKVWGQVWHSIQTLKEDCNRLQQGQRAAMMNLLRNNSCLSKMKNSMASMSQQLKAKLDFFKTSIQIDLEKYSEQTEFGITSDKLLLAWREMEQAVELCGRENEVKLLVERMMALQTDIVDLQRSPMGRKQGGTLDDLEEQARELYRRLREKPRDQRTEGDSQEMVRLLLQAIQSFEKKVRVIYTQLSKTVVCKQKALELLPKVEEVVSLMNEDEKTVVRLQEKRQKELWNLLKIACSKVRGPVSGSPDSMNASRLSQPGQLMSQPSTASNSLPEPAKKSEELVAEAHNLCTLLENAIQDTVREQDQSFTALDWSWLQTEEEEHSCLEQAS
Chain of MKNK2 (human) (Q9HBH9 whole entry, looked up): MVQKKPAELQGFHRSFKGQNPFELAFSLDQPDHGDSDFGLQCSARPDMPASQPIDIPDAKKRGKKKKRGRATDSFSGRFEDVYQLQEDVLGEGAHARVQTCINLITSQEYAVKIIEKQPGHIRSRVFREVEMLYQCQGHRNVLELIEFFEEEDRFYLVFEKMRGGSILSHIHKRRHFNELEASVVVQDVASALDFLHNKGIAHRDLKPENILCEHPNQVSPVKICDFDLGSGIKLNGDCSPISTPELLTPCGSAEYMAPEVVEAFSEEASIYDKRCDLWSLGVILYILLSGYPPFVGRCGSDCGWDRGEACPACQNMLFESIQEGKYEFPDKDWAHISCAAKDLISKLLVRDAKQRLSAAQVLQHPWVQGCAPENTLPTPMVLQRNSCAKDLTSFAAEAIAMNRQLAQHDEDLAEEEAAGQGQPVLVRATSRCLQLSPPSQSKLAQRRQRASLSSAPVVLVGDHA
Chain of MAPK12 (human) (P53778 whole entry, looked up): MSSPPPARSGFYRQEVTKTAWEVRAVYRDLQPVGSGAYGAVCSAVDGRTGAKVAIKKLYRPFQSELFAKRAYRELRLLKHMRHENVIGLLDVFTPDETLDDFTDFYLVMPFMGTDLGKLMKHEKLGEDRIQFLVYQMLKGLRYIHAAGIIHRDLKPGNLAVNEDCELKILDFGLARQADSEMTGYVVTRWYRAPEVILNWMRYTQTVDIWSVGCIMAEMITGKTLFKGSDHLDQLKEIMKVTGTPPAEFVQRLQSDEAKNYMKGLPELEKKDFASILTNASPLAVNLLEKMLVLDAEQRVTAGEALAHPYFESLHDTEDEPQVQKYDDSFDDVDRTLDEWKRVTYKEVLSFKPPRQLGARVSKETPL
Chain of RPS6KA1 KD1 KD2 (human) (Q15418 whole entry, looked up): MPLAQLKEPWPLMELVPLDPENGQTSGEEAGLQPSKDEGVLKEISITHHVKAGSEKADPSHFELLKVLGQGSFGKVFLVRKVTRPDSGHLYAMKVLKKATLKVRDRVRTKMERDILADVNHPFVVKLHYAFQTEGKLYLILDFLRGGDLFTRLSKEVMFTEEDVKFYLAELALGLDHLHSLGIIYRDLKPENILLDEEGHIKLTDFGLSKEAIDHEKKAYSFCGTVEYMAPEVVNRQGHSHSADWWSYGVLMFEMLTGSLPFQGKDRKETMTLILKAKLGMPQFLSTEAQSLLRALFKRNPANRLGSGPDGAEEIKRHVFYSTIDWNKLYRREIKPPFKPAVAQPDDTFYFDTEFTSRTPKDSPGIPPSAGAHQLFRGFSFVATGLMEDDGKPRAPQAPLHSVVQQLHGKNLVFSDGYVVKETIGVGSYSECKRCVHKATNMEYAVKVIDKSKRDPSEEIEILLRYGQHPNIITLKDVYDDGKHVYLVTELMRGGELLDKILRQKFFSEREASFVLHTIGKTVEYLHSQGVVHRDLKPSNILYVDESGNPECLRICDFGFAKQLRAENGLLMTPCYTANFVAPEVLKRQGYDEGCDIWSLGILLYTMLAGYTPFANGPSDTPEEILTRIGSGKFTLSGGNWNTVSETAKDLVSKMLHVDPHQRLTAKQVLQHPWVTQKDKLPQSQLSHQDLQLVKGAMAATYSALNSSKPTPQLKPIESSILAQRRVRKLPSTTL
Chain of EPHB3 (human) (P54753 whole entry, looked up): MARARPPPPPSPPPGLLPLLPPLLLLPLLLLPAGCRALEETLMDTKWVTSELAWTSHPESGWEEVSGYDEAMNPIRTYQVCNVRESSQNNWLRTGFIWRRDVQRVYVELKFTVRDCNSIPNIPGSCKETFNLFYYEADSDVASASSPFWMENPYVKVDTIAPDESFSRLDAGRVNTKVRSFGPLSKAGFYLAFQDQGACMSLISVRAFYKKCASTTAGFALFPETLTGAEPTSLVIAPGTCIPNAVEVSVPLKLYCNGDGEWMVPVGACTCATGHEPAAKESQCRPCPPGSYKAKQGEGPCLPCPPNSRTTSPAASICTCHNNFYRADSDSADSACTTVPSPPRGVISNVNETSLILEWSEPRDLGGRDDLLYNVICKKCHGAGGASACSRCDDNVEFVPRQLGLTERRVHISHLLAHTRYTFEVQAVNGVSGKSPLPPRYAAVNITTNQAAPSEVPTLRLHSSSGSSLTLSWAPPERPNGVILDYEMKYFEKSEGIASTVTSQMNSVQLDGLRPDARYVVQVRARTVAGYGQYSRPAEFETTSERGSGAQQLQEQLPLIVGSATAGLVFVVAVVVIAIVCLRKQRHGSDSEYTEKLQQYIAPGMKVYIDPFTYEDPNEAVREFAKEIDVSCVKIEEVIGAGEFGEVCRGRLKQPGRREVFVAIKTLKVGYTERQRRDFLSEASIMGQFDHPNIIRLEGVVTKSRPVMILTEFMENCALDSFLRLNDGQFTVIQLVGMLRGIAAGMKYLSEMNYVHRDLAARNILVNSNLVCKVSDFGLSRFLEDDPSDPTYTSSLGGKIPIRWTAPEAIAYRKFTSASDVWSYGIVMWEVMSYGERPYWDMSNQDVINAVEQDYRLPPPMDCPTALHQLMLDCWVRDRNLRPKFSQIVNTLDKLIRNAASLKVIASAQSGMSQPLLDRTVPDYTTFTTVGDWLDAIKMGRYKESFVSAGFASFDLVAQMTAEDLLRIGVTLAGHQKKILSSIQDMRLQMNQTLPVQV
Chain of IRAK4 (human) (Q9NWZ3 whole entry, looked up): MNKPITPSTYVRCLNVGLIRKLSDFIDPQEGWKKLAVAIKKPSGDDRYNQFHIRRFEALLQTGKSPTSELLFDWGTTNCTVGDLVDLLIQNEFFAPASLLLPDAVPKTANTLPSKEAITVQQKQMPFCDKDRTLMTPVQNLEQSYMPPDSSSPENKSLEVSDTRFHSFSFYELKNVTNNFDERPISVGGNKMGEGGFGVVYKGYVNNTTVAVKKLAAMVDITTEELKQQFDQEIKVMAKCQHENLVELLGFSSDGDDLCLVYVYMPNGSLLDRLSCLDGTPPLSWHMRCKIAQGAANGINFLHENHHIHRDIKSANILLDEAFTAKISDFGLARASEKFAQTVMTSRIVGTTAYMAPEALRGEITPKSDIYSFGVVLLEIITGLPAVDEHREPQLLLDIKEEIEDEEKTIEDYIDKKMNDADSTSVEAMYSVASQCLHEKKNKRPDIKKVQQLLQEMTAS
Chain of STK3 (human) (Q13188 whole entry, looked up): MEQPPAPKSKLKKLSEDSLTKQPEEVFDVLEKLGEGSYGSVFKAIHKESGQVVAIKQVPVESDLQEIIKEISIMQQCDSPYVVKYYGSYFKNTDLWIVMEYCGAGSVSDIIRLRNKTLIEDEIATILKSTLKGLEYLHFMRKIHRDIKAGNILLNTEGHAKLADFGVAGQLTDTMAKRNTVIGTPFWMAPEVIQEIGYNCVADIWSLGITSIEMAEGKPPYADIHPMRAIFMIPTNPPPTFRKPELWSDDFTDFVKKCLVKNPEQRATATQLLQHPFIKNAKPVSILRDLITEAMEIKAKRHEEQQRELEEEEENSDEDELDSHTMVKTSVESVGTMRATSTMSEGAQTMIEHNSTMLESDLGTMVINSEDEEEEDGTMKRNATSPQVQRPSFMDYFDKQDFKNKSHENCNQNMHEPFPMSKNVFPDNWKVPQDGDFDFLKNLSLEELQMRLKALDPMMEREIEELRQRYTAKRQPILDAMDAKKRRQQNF

A residual activity ([1]; compound 1.0 µM) of 98%, a residual activity ([1]; compound 10.0 µM) of 36% and a residual activity (BRSK2 (human); compound 0.01 µM) of 114% were found for CNc1nc(-c2ccc3c(N)n[nH]c3c2)cc(N2C[C@@H](C(=O)NC3CCCCC3)CC[C@H]2C)n1 in this work. For the same compound, the residual activity (BRSK2 (human); compound 0.1 µM) was 110%, the residual activity (BRSK2 (human); compound 10.0 µM) was 15% and the residual activity (CLK2 (human); compound 1.0 µM) was 98%. The residual activity (CLK2 (human); compound 10.0 µM) was 88%, the residual activity (CSNK2A1 (human); compound 0.01 µM) was 103% and the residual activity (CSNK2A1 (human); compound 0.1 µM) was 104%. The residual activity (CSNK2A1 (human); compound 1.0 µM) was 91%, the residual activity (CSNK2A1 (human); compound 10.0 µM) was 111% and the residual activity (DAPK1 (human); compound 1.0 µM) was 35%. It also gave a residual activity (DAPK1 (human); compound 10.0 µM) of 12%, a residual activity (DYRK1A (human); compound 0.01 µM) of 102% and a residual activity (DYRK1A (human); compound 0.1 µM) of 107%. The residual activity (DYRK1A (human); compound 1.0 µM) was 92%, the residual activity (DYRK1A (human); compound 10.0 µM) was 82% and the residual activity (DYRK3 (human); compound 0.01 µM) was 100%. For the same compound, the residual activity (DYRK3 (human); compound 0.1 µM) was 103%, the residual activity (DYRK3 (human); compound 1.0 µM) was 94% and the residual activity (DYRK3 (human); compound 10.0 µM) was 88%. It also gave a residual activity (EPHB3 (human); compound 0.01 µM) of 106%, a residual activity (EPHB3 (human); compound 0.1 µM) of 107% and a residual activity (EPHB3 (human); compound 1.0 µM) of 120%. It also gave a residual activity (EPHB3 (human); compound 10.0 µM) of 103%, a residual activity (IKBKB (human); compound 0.01 µM) of 105% and a residual activity (IKBKB (human); compound 0.1 µM) of 112%. The residual activity (IKBKB (human); compound 1.0 µM) was 118%, the residual activity (IKBKB (human); compound 10.0 µM) was 103% and the residual activity (IKBKE (human); compound 0.01 µM) was 114%. It also gave a residual activity (IKBKE (human); compound 0.1 µM) of 97%, a residual activity (IKBKE (human); compound 1.0 µM) of 91% and a residual activity (IKBKE (human); compound 10.0 µM) of 45%. It also gave a residual activity (IRAK4 (human); compound 0.01 µM) of 109%, a residual activity (IRAK4 (human); compound 0.1 µM) of 112% and a residual activity (IRAK4 (human); compound 1.0 µM) of 92%. The residual activity (IRAK4 (human); compound 10.0 µM) was 99%, the residual activity (MAP2K6 (human); compound 1.0 µM) was 87% and the residual activity (MAP2K6 (human); compound 10.0 µM) was 94%. The residual activity (MAP3K11 (human); compound 0.01 µM) was 100%, the residual activity (MAP3K11 (human); compound 0.1 µM) was 110% and the residual activity (MAP3K11 (human); compound 1.0 µM) was 80%. For the same compound, the residual activity (MAP3K11 (human); compound 10.0 µM) was 44%, the residual activity (MAP3K7 TAB1 (human); compound 1.0 µM) was 99% and the residual activity (MAP3K7 TAB1 (human); compound 10.0 µM) was 79%. The residual activity (MAPK11 (human); compound 0.01 µM) was 113%, the residual activity (MAPK11 (human); compound 0.1 µM) was 129% and the residual activity (MAPK11 (human); compound 1.0 µM) was 105%. It also gave a residual activity (MAPK11 (human); compound 10.0 µM) of 109%, a residual activity (MAPK12 (human); compound 0.01 µM) of 109% and a residual activity (MAPK12 (human); compound 0.1 µM) of 110%. For the same compound, the residual activity (MAPK12 (human); compound 1.0 µM) was 99%, the residual activity (MAPK12 (human); compound 10.0 µM) was 110% and the residual activity (MAPK14 (human); compound 0.01 µM) was 105%. The residual activity (MAPK14 (human); compound 0.1 µM) was 109%, the residual activity (MAPK14 (human); compound 1.0 µM) was 100% and the residual activity (MAPK14 (human); compound 10.0 µM) was 99%. The residual activity (MAPK3 (human); compound 0.01 µM) was 93%, the residual activity (MAPK3 (human); compound 0.1 µM) was 106% and the residual activity (MAPK3 (human); compound 1.0 µM) was 103%. The residual activity (MAPK3 (human); compound 10.0 µM) was 108%, the residual activity (MAPK8 (human); compound 0.01 µM) was 92% and the residual activity (MAPK8 (human); compound 0.1 µM) was 108%. The residual activity (MAPK8 (human); compound 1.0 µM) was 94%, the residual activity (MAPK8 (human); compound 10.0 µM) was 108% and the residual activity (MAPKAPK3 (human); compound 0.01 µM) was 112%. For the same compound, the residual activity (MAPKAPK3 (human); compound 0.1 µM) was 112%, the residual activity (MAPKAPK3 (human); compound 1.0 µM) was 91% and the residual activity (MAPKAPK3 (human); compound 10.0 µM) was 68%. For the same compound, the residual activity (MAPKAPK5 (human); compound 0.01 µM) was 81%, the residual activity (MAPKAPK5 (human); compound 0.1 µM) was 92% and the residual activity (MAPKAPK5 (human); compound 1.0 µM) was 110%. It also gave a residual activity (MAPKAPK5 (human); compound 10.0 µM) of 95%, a residual activity (MKNK2 (human); compound 0.01 µM) of 91% and a residual activity (MKNK2 (human); compound 1.0 µM) of 80%. For the same compound, the residual activity (MKNK2 (human); compound 10.0 µM) was 94%, the residual activity (NTRK1 (human); compound 1.0 µM) was 94% and the residual activity (NTRK1 (human); compound 10.0 µM) was 84%. The residual activity (PAK4 (human); compound 0.01 µM) was 108%, the residual activity (PAK4 (human); compound 0.1 µM) was 117% and the residual activity (PAK4 (human); compound 1.0 µM) was 100%. The residual activity (PIM1 (human); compound 0.01 µM) was 99%, the residual activity (PIM1 (human); compound 0.1 µM) was 100% and the residual activity (PIM1 (human); compound 1.0 µM) was 112%. For the same compound, the residual activity (PIM1 (human); compound 10.0 µM) was 93%, the residual activity (PIM2 (human); compound 0.01 µM) was 97% and the residual activity (PIM2 (human); compound 1.0 µM) was 97%. For the same compound, the residual activity (PIM2 (human); compound 10.0 µM) was 110%, the residual activity (PIM3 (human); compound 0.01 µM) was 105% and the residual activity (PIM3 (human); compound 0.1 µM) was 112%. For the same compound, the residual activity (PIM3 (human); compound 1.0 µM) was 94%, the residual activity (PIM3 (human); compound 10.0 µM) was 73% and the residual activity (PLK1 (human); compound 0.01 µM) was 95%. It also gave a residual activity (PLK1 (human); compound 0.1 µM) of 113%, a residual activity (ROCK2 (rat); compound 0.01 µM) of 96% and a residual activity (ROCK2 (rat); compound 0.1 µM) of 92%. For the same compound, the residual activity (ROCK2 (rat); compound 1.0 µM) was 67%, the residual activity (ROCK2 (rat); compound 10.0 µM) was 27% and the residual activity (RPS6KA1 KD1 KD2 (human); compound 0.01 µM) was 123%. The residual activity (RPS6KA1 KD1 KD2 (human); compound 0.1 µM) was 113%, the residual activity (RPS6KA1 KD1 KD2 (human); compound 1.0 µM) was 86% and the residual activity (RPS6KA1 KD1 KD2 (human); compound 10.0 µM) was 40%. For the same compound, the residual activity (RPS6KA3 KD1 KD2 (human); compound 0.1 µM) was 97%, the residual activity (RPS6KA3 KD1 KD2 (human); compound 1.0 µM) was 79% and the residual activity (RPS6KA3 KD1 KD2 (human); compound 10.0 µM) was 28%. For the same compound, the residual activity ([2]; compound 0.01 µM) was 111%, the residual activity ([2]; compound 0.1 µM) was 106% and the residual activity ([2]; compound 1.0 µM) was 108%. For the same compound, the residual activity ([2]; compound 10.0 µM) was 81%, the residual activity ([3]; compound 0.01 µM) was 96% and the residual activity ([3]; compound 0.1 µM) was 96%. For the same compound, the residual activity ([3]; compound 1.0 µM) was 81%, the residual activity ([3]; compound 10.0 µM) was 37% and the residual activity (STK3 (human); compound 0.01 µM) was 116%. It also gave a residual activity (STK3 (human); compound 0.1 µM) of 128%, a residual activity (STK3 (human); compound 1.0 µM) of 91% and a residual activity (STK3 (human); compound 10.0 µM) of 84%. It also gave a residual activity (TBK1 (human); compound 0.01 µM) of 110%, a residual activity (TBK1 (human); compound 0.1 µM) of 115% and a residual activity (TBK1 (human); compound 1.0 µM) of 89%. It also gave a residual activity (TBK1 (human); compound 10.0 µM) of 81%.
